Tests used:
Type in all cases: ADME, organism-based
Conditions in all cases: in vivo
[1] = AUC in Wistar Han rat at 5 mg/kg, po
[2] = Cmax in Wistar Han rat at 5 mg/kg, po; design: dose 5 mg/kg, route oral
[3] = Clearance in Wistar Han rat at 2 mg/kg, iv or 5 mg/kg, po
[4] = Half life in Wistar Han rat at 2 mg/kg, iv or 5 mg/kg, po
[5] = Oral bioavailability in Wistar Han rat at 5 mg/kg

SMILES: CCC(=O)CCCCC[C@H](NC(=O)[C@H]1CC12CCN(CC)CC2)c1ncc(-c2cc3ccccc3nc2OC)[nH]1
- AUC [1]: 1.13 µM·h
- Cmax [2]: 260 nM
- clearance [3]: 7.2 mL/min/kg
- half-life [4]: 3 h
- bioavailability [5]: 5.8%
